The values below come from ChEMBL document CHEMBL5579842, “Modulation of endogenous opioid signaling by inhibitors of puromycin-sensitive aminopeptidase” (Eur J Med Chem, 2024).

Calls of active or inactive are those of the source. The calls are words filed in the database; no cut-off is given here.

The target in data set [1] is Puromycin-sensitive aminopeptidase (Homo sapiens, UniProt P55786). The data set is described as follows: Inhibition of human N-terminal His-tagged Puromycin-sensitive aminopeptidase extracted from Escherichia coli BL21 STAR (DE3) using alanine-4-methoxy-2-naphthylamide as substrate incubated for 30 mins by SpectraMax microplate reader analysis.
In data set [2] the target is T1, Aminopeptidase N (Homo sapiens, UniProt P15144). The data set is described as follows: Inhibition of Aminopeptidase N (unknown origin) using Ala-AMC as substrate incubated for 30 mins by SpectraMax microplate reader analysis.
Data set [3] has as its target T1, Aminopeptidase N. The data set is described as follows: Inhibition of Aminopeptidase N (unknown origin) using Ala-AMC as substrate at 10 uM incubated for 30 mins by SpectraMax microplate reader analysis relative to control.
A further data set concerns Vero. The data set is described as follows: Inhibition of protein synthesis in African green monkey Vero cells at 25 uM relative to control. It counts as functional. As to conditions: Chlorocebus sabaeus.
Data set [4] in a line: Cytotoxicity against African green monkey Vero cells by MTT assay. It is filed as toxicity, cell-based. As to conditions: chlorocebus sabaeus. On the technique in general: Tetrazolium assays rely on reduction of a dye to a coloured formazan, in cell work by metabolically active cells.
The test system of data set [5] is Mus musculus. The data set is described as follows: Antinociceptive activity in CF-1 mouse assessed as analgesic effect at 50 to 100 ug,icv administration measured after 45 mins by tail-flick test. As to conditions: dose 50-100 µg. It counts as functional, organism-based.
Data set [6] deals with Mus musculus. The data set is described as follows: Antinociceptive activity in CF-1 mouse assessed as increase in maximal possible effect at 50 to 100 ug,icv administration measured after 60 mins by tail-flick test. It counts as functional, organism-based. Conditions: dose 50-100 µg. Background: Hot-plate and tail-flick tests time the reaction to a heat stimulus.
Data set [7] has as its system Mus musculus. The data set is described as follows: Antinociceptive activity in CF-1 mouse assessed as analgesic effect at ip administration measured after 60 mins by tail-flick test. It is filed as functional, organism-based.
The test system of data set [8] is Mus musculus. The data set is described as follows: Antinociceptive activity in CF-1 mouse assessed as analgesic effect at 50 to 100 ug,icv administration measured after 60 mins by tail-flick test. It counts as functional, organism-based. Conditions: dose 50-100 µg.
In data set [9] the test system is Mus musculus. The data set is described as follows: Antinociceptive activity in CF-1 mouse assessed as increase in maximal possible effect at 50 to 100 ug,icv administration measured after 15 mins by tail-flick test. Conditions: dose 50-100 µg. It is filed as functional, organism-based.
The subject of data set [10] is Mus musculus. The data set is described as follows: Antinociceptive activity in CF-1 mouse assessed as analgesic effect at 50 to 100 ug,icv administration measured after 15 mins by hot plate assay. It counts as functional, organism-based. Conditions: dose 50-100 µg.
For data set [11], the system named is Mus musculus. In words: Antinociceptive activity in CF-1 mouse assessed as analgesic effect at ip administration measured after 15 mins by hot plate assay. It is filed as functional, organism-based.
The subject of data set [12] is Mus musculus. The data set is described as follows: Antinociceptive activity in CF-1 mouse assessed as increase in maximal possible effect at 50 to 100 ug,icv administration in presence of Met-enkephalin measured after 65 mins by tail-flick test. As to conditions: dose 50-100 µg. It is filed as functional, organism-based.
In data set [13] the test system is Mus musculus. The data set is described as follows: Antinociceptive activity in CF-1 mouse assessed as increase in maximal possible effect at 50 to 100 ug,icv administration in presence of Met-enkephalin measured after 15 mins by tail-flick test. It is filed as functional, organism-based. Conditions: dose 50-100 µg.
In data set [14] the test system is Mus musculus. In words: Antinociceptive activity in CF-1 mouse assessed as increase in maximal possible effect at 50 to 100 ug,icv administration in presence of Met-enkephalin measured after 65 mins by hot plate assay. As to conditions: dose 50-100 µg. It counts as functional, organism-based.
The subject of data set [15] is Mus musculus. In words: Antinociceptive activity in CF-1 mouse assessed as increase in maximal possible effect at 50 to 100 ug,icv administration in presence of Met-enkephalin measured after 15 mins by hot plate assay. It is filed as functional, organism-based. As to conditions: dose 50-100 µg.
Data set [16] has as its system Mus musculus. In words: Antinociceptive activity in CF-1 mouse assessed as increase in maximal possible effect at 50 to 100 ug,icv administration in presence of naloxone measured after 65 mins by tail-flick test. It is filed as functional, organism-based. As to conditions: dose 50-100 µg.
Data set [17] concerns Mus musculus. In words: Antinociceptive activity in CF-1 mouse assessed as increase in maximal possible effect at 50 to 100 ug,icv administration in presence of naloxone measured after 15 mins by tail-flick test. It counts as functional, organism-based. Conditions: dose 50-100 µg.
Data set [18] relates to Mus musculus. The data set is described as follows: Antinociceptive activity in CF-1 mouse assessed as increase in maximal possible effect at 50 to 100 ug,icv administration in presence of naloxone measured after 65 mins by hot plate assay. It counts as functional, organism-based. As to conditions: dose 50-100 µg.
Data set [19] has as its system Mus musculus. The data set is described as follows: Antinociceptive activity in CF-1 mouse assessed as increase in maximal possible effect at 50 to 100 ug,icv administration in presence of naloxone measured after 15 mins by hot plate assay. It is filed as functional, organism-based. Conditions: dose 50-100 µg.
Data set [20] has as its system Mus musculus. In words: Antinociceptive activity in CF-1 mouse assessed as increase in Met-enkephalin level in brain at 50 to 100 ug,icv administration in presence of KCL measured after 65 mins by LC-MS/MS analysis. As to conditions: dose 50-100 µg. It counts as functional, organism-based.
The test system of data set [21] is Mus musculus. In words: Antinociceptive activity in CF-1 mouse assessed as increase in Leu-enkephalin level in brain at 50 to 100 ug,icv administration in presence of KCL measured after 65 mins by LC-MS/MS analysis. Conditions: dose 50-100 µg. It is filed as functional, organism-based.
The test system of data set [22] is Mus musculus. The data set is described as follows: Antinociceptive activity in CF-1 mouse assessed as increase in MERF level in brain at 50 to 100 ug,icv administration in presence of KCL measured after 65 mins by LC-MS/MS analysis. As to conditions: dose 50-100 µg. It is filed as functional, organism-based.
Data set [23] in a line: Stability in mouse plasma assessed as compound remaining at 1 uM measured after 24 hr by LC-MS/MS analysis relative to control. It is filed as ADME, cell-free.

Sequence of Puromycin-sensitive aminopeptidase (P55786 whole entry): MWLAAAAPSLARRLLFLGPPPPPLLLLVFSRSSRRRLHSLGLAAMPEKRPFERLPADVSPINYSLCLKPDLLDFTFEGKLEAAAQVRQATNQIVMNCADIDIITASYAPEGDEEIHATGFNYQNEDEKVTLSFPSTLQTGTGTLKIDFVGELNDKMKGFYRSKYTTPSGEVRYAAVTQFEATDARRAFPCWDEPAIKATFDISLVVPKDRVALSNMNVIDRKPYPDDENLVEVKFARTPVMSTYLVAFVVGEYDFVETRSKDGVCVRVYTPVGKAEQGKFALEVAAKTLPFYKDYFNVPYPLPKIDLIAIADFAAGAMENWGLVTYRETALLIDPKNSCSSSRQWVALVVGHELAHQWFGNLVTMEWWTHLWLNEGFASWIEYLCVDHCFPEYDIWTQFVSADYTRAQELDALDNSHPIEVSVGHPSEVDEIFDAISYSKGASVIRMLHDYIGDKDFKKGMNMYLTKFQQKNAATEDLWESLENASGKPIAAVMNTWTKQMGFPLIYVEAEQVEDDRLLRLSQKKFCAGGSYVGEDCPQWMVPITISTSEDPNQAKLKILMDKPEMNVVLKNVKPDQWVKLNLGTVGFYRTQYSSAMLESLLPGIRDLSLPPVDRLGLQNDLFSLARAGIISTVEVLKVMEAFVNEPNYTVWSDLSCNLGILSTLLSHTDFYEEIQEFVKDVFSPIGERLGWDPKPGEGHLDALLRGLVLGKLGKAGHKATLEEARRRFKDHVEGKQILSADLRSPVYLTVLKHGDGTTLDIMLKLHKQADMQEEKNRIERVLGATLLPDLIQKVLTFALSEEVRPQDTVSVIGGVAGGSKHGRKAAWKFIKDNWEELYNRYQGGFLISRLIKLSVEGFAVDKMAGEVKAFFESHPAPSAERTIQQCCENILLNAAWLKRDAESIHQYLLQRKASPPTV
T1 sequence (P15144 whole entry): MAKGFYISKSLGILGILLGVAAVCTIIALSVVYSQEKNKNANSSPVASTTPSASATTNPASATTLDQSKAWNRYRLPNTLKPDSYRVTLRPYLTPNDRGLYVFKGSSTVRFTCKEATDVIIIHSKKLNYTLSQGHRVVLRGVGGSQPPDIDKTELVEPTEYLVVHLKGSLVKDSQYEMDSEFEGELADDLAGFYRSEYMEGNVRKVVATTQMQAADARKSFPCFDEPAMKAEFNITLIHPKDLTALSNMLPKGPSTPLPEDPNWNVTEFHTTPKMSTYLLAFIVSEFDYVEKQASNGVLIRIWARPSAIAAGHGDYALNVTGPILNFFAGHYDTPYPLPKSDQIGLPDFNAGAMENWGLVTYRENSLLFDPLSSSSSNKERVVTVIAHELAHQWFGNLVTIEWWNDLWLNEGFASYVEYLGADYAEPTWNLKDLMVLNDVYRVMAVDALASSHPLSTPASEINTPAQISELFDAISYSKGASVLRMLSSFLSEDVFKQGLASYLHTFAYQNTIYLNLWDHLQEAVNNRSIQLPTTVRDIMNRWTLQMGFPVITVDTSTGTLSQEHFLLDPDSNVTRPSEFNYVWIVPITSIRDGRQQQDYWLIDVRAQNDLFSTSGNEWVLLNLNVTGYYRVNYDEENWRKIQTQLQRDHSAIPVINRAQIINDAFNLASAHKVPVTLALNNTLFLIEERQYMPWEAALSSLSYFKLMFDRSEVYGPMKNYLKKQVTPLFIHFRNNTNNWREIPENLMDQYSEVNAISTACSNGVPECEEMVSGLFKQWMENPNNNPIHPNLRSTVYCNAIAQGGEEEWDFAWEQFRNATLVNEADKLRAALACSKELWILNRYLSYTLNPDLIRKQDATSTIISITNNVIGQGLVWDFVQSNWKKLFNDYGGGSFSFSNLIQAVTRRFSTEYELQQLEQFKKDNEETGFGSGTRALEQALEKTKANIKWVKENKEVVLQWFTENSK

In general, IC50 refers to the concentration at which inhibition is half-maximal. As a reminder, the inhibition is how much of the control response was suppressed. Usually CC50 stands for the concentration giving 50% cytotoxicity. On to `CN(C)c1ncnc2c1ncn2[C@@H]1O[C@H](CCl)[C@@H](NC(=O)[C@@H](N)CSC(c2ccccc2)c2ccccc2)[C@H]1O`, for which the results for the half-maximal inhibitory concentration (IC50) (in data set [1]; at Aminopeptidase N [2]) were 0.007 µM and 2.6 µM, respectively. Besides, at Aminopeptidase N [3], the inhibition stood at 55.8%. For the same compound, the inhibition at 25 µM in the data set with Vero was 0%. In addition, the CC50 in [4] was > 100 µM. The result in the data set with Mus musculus [5], in the data set with Mus musculus [6], with Mus musculus [8], in the data set with Mus musculus [9], in the data set with Mus musculus [10] and with Mus musculus [12] was Active. Besides, the result in the data set with Mus musculus [13], with Mus musculus [14], in the data set on Mus musculus [15], in the data set with Mus musculus [21] and in the data set with Mus musculus [22] was Active. For the same compound, the outcome with Mus musculus [7], in the data set with Mus musculus [11], in the data set with Mus musculus [16], in the data set on Mus musculus [17], in the data set with Mus musculus [18] and in the data set with Mus musculus [19] was inactive. In addition, the result in the data set on Mus musculus [20] was inactive. Further, the Stability in data set [23] is 116.7%.
In the case of `CN(C)c1ncnc2c1ncn2[C@@H]1O[C@H](CCl)[C@@H](NC(=O)[C@@H](N)CSC23CC4CC(CC(C4)C2)C3)[C@H]1O`, the IC50 in data set [1] was found to be 0.005 µM; against Aminopeptidase N [2], 0.084 µM. The compound further returned an inhibition at Aminopeptidase N [3] of 99.1%. Further, testing at 25 µM in the data set with Vero gave an inhibition of 10.4%.
Turning to `COc1ccc(C[C@H](N)C(=O)N[C@H]2[C@@H](O)[C@H](n3cnc4c(N(C)C)ncnc43)O[C@@H]2CCl)cc1`, the IC50 against Aminopeptidase N [2] was > 100 µM. In the data set on Vero, this compound yielded an inhibition at 25 µM of 26.1%.
With `CN(C)c1ncnc2c1ncn2[C@@H]1O[C@H](CCl)[C@@H](NC(=O)[C@@H](CSC(c2ccccc2)c2ccccc2)NC(=O)OC(C)(C)C)[C@H]1O`, the inhibition against Aminopeptidase N [3] stood at 0%. Also, 25 µM produced 0% inhibition with Vero. In data set [4], this compound had a CC50 of 67.4 µM.
On to `CN(C)c1ncnc2c1ncn2[C@@H]1O[C@H](CO)[C@@H](NC(=O)[C@H](N)CSC(c2ccccc2)c2ccccc2)[C@H]1O`, for which at 25 µM the inhibition with Vero was 0%. The midpoint of cytotoxicity in [4], the CC50, lay at 46 µM.
`CN(C)c1ncnc2c1ncn2[C@@H]1O[C@H](CO)[C@@H](NC(=O)[C@@H](N)CSC(c2ccccc2)c2ccccc2)[C@H]1O` returned a half-inhibitory concentration (IC50) in data set [1] of 0.007 µM. The compound also yielded an inhibition at 25 µM in the data set with Vero of 0%. Also, the CC50 in data set [4] was > 100 µM.
Compound `CN(C)c1ncnc2c1ncn2[C@@H]1O[C@H](CO)[C@@H](NC(=O)[C@@H](N)CSC23CC4CC(CC(C4)C2)C3)[C@H]1O` showed an inhibition at Aminopeptidase N [3] of 99.1%. For the same compound, testing at 25 µM in the data set on Vero gave an inhibition of 24%. This compound also came in with a CC50 in data set [4] of 17.6 µM.
`CC(C)C[C@H](NC(=O)[C@@H](O)[C@H](N)Cc1ccccc1)C(=O)O` [UBENIMEX]: in the data set on Vero, the inhibition at 25 µM came to 28%. Further, half-maximal cytotoxicity in [4] (CC50) was put at 25 µM.
The compound `CN(C)c1ncnc2c1ncn2[C@@H]1O[C@H](CCl)[C@@H](NC(=O)[C@H](CSC23CC4CC(CC(C4)C2)C3)NC(=O)OC(C)(C)C)[C@H]1O` gave an inhibition against Aminopeptidase N [3] of 0%. In the data set on Vero, this compound registered an inhibition at 25 µM of 22.1%.
Regarding `CN(C)c1ncnc2c1ncn2[C@@H]1O[C@H](CCl)[C@@H](NC(=O)[C@H](N)CSC(c2ccccc2)c2ccccc2)[C@H]1O`, on Aminopeptidase N [3], the inhibition is 38.9%. In the data set on Vero, this compound returned an inhibition at 25 µM of 0%.
For the compound `COc1ccc(C[C@H](N)C(=O)N[C@H]2[C@@H](O)[C@H](n3cnc4c(N(C)C)ncnc43)O[C@@H]2CO)cc1` [PUROMYCIN], in the data set on Vero, the inhibition at 25 µM was 99%. For the same compound, the CC50 in [4] was 2.76 µM.
The matching figures for `CC(C)C[C@@H](C(=O)N[C@H](C(=O)OC1CCCC1)c1ccccc1)[C@H](O)C(=O)NO` [TOSEDOSTAT]: 34.5% and 12.7 µM.
The compound `CN(C)c1ncnc2c1ncn2[C@@H]1O[C@H](CCl)[C@@H](NC(=O)[C@H](CSC(c2ccccc2)c2ccccc2)NC(=O)OC(C)(C)C)[C@H]1O` displayed an inhibition at Aminopeptidase N [3] of 4.6%. Further, at 25 µM the inhibition in the data set with Vero was 3%. Also, the 50% cytotoxic concentration (CC50) in [4] was > 100 µM.
Regarding `O=C(O)CNC(=O)C(CS)Cc1ccccc1` (centres undefined) [THIORPHAN], the half-inhibitory concentration (IC50) in [1] is 57.3 µM; at Aminopeptidase N [2] it was > 100 µM. This compound also returned an inhibition against Aminopeptidase N [3] of 0%. 25 µM produced 70.3% inhibition in the data set with Vero. Further, the CC50 in data set [4] is > 100 µM.
